Experiments:
[1] = tested on: Bursaphelenchus xylophilus; test: Occurrence of pine wilt disease after trunk injection of induced resistance candidate materials, in vivo test in young red pine trees; settings: red pine tree (Pinus densiflora), 30 days after inoculation; for Occurrence rate of pine wilt disease: Number of pine trees showing wilt symptoms / Number of pine trees used for the test: trunk injection 100 µℓ per tree; for Number of pine trees showing wilt symptoms only at growing points of a stem: trunk injection
Description: By using the 15 types of an induced resistance elicitors which have been known to induce the plant resistance against various diseases as candidates, their controlling effect against pine wilt disease was examined. The control efficacy of candidates against pine wilt disease was analyzed according to an in vivo test using red pine tree (Pinus densiflora) which was 2-year old young pine trees (diameter of 5.5 mm or so, and height of about 35 mm).
As a candidate group of an induced resistance material, two kinds of acibenzolar-S-methyl (ASM), TDL (Tiadinil), ITL (Isotianil), PBZ (Probenzole), AZO (Azoxystrobin), VMA (Validamycin A), MeJA (Methyl jasmonate), BABA (DL-3-aminobutyric acid), 2,3-BDO (2,3-Butanediol), SA (salicyclic acid), GABA (r-Aminobutyric acid), glucan (Glucan), ER (Ergosterol), and AZA (Azelaic acid) were used. Only the use of acibenzolar-S-methyl is according to the invention. Injection of the chemicals was carried out by trunk injection method, i.e., at an angle of 45°, a borehole was created by using an electric drill with thickness of 1.5 mm on a pine stem part that is 5 to 10 cm above the soil surface, a tip (200 µℓ) was inserted to the hole, and, after dissolving the candidate material at concentration level of 200, 20, or 2 µg/mℓ in each solvent, the solution was injected in an amount of 100 µℓ per pine tree. After the injection of the chemical agent, the end part of the tip was sealed with parafilm.
The pine tree wilt nematodes (Bursaphelenchus xylophilus, National Institute of Forest Science (NIFoS), South Korea) was incubated at 25°C by feeding them with Botrytis cinerea, which have been cultured on a potato dextrose agar (PDA) medium, and after one week incubation, they were collected by Baermann funnel method and were adjusted to the level of 20,000 worms/mℓ by examining the number of the worms under an optical microscope. One week after the chemical treatment, the inoculation of the pine tree wilt nematodes was carried out by tree barking inoculation of 100 µℓ, i.e., 2,000 worms, per tree, and the result was determined 30 days after the inoculation. […] [Table 1] Occurrence rate of pine wilt disease in candidate group of induced resistance materials

Cytochrome_P450 = test: qRT-PCR expression of induced resistance gene in pine tree callus; assay type: cell-based; settings: 200 µg/mℓ, 24 hours
Description: For in vitro analysis of induced resistance, the expression of PR genes and other plant defense-related genes was determined, which are evolved in various defense mechanisms including induced resistance. The primers of sixteen induced resistance-related genes of pine tree used in this invention were listed in the below and elongation factor_1 alpha were used as a reference gene. […] The primer list of defense resistance-related genes
After the treatment with 200 µg / mℓ of candidates of the selected induced resistance material, expression of the induced resistance-related gene in pine callus was determined by qRT-PCR using the primer pairs of defense resistance-related genes in Table 4. As a candidate group of an induced resistance material in pine tree, acibenzolar-S-methyl (ASM), TDL (Tiadinil), ITL (Isotianil), PBZ (Probenzole), AZO (Azoxystrobin), VMA (Validamycin A), MeJA (Methyl jasmonate), BABA (DL-3-aminobutyric acid), 2,3-BDO (2,3-Butanediol), GABA (r-Aminobutyric acid), glucan (Glucan), ER (Ergosterol), and AZA (Azelaic acid) were used. For the in vitro analysis of the expression of induced resistance gene in pine callus, the selected induced resistance materials were applied with 500 µℓ of LM liquid medium on a surface of pine tree callus (100 mg) in 12-well microplate to give final concentration of 200 µg/mℓ. Then, the callus surface was sufficiently reacted for 24 hours with the candidate of pine tree induced resistance material by shaking at 50 rpm in a 25 °C shaking incubator under dark condition. RNAs were extracted from the callus after completion of the reaction with an induced resistance material, followed by synthesis of cDNAs. Then, by carrying out qRT-PCR, the expression of induced resistance genes was determined.
Thus, the following tests were carried out using acibenzolar-S-methyl only. Expression of the induced resistance genes at different culture time after the chemical treatment was examined. For the in vitro assay, LM medium containing pine tree callus was treated with acibenzolar-S-methyl at concentration of 200 µg / mℓ, followed by reaction for 1 day, 7 days, or 14 days in a 25°C shaking incubator under dark condition. RNAs were extracted from the callus after the reaction followed by synthesis of cDNAs. Then, by carrying out qRT-PCR, the expression of the induced resistance genes was determined. Depending on reaction time after the treatment, i.e., after 1 day, 7 days, or 14 days, the expression of the obtained induced resistance genes was examined. […]
For the surface treatment (spraying treatment) of pine tree callus, 100 mg of the pine tree callus were dunked in 500 µℓ LM liquid medium and 500 µℓ of 400 µg/mℓ acibenzolar-S-methyl were sprayed (i.e., sprayed 5 times, 100 µℓ for each spraying, 200 µg/mℓ) on the callus surface. Then, the pine callus sprayed with acibenzolar-S-methyl was reacted for 24 hours by shaking at 50 rpm in a 25°C shaking incubator under dark condition. After the completion of the 24-hour reaction, RNAs were extracted from the callus followed by synthesis of cDNAs. Then, by carrying out qRT-PCR, expression of the induced resistance gene was determined.

SMILES | Occurrence rate of pine wilt disease: Number of pine trees showing wilt symptoms / Number of pine trees used for the test ([1]; 2 µg/mℓ) | Occurrence rate of pine wilt disease: Number of pine trees showing wilt symptoms / Number of pine trees used for the test ([1]; 20 µg/mℓ) | Occurrence rate of pine wilt disease: Number of pine trees showing wilt symptoms / Number of pine trees used for the test ([1]; 200 µg/mℓ) | Number of pine trees showing wilt symptoms only at growing points of a stem ([1]; 2 µg/mℓ) | Number of pine trees showing wilt symptoms only at growing points of a stem ([1]; 20 µg/mℓ) | Number of pine trees showing wilt symptoms only at growing points of a stem ([1]; 200 µg/mℓ) | Expression of induced resistance gene, Cytochrome_P450 (Cytochrome_P450)
Cc1ccc(NC(=O)c2snnc2C)cc1Cl [TDL, Tiadinil] | 3/3 | 2/3 | 1/3 | 3 | 2 | 1 | 0.91
CO/C=C(/C(=O)OC)c1ccccc1Oc1cc(Oc2ccccc2C#N)ncn1 [AZO, Azoxystrobin] | 0/3 | 2/2 | 2/3 | – | 1 | 2 | 1.17
CC/C=C\CC1C(=O)CCC1CC(=O)OC (centres unmarked) [MeJA, Methyl jasmonate] | 3/3 | 2/3 | 2/3 | 1 | 1 | 2 | 0.3
OCC1=C[C@@H](N[C@H]2C[C@H](CO)[C@@H](O[C@H]3O[C@@H](CO)[C@H](O)[C@@H](O)[C@@H]3O)[C@H](O)[C@H]2O)[C@H](O)[C@@H](O)[C@@H]1O [VMA, Validamycin A] | 2/3 | 1/3 | 2/3 | 2 | 1 | 1 | 1.17
CC(C)[C@@H](C)/C=C/[C@@H](C)[C@H]1CC[C@H]2C3=CC=C4C[C@@H](O)CC[C@]4(C)[C@H]3CC[C@]12C [ER, Ergosterol] | 3/3 | 0/3 | 1/3 | 1 | – | – | 1.06

From patent EP3685668B1, “COMPOSITION COMPRISING ACIBENZOLAR-S-METHYL AS EFFECTIVE INGREDIENT FOR CONTROLLING BURSAPHELENCHUS XYLOPHILUS DISEASE AND METHOD FOR CONTROLLING BURSAPHELENCHUS XYLOPHILUS USING SAME” (Industry Foundation of Chonnam National University, priority 2017, dated 2019)
